Results reported in patent US20160355530A1, “HEPATITIS C INHIBITORS AND USES THEREOF” (AbbVie Inc., priority 2010, published 2016).
Where two headings read alike, the source gives them in different places.

Legend:
[1] = target: T1, HCV NS5B polymerase 1a-H77-C316Y (Hepatitis C virus genotype 1a, UniProt P27958, C2736Y); assay: biochemical; design: species or system HCV genotype 1a
T1 construct: six-histidine tag; made in house; host or cells: E. coli
Method in brief: (§1)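 Incorporation of [3H]UTP (0.284 μM), alongside 20 μM each CTP and ATP, into RNA copied from a 5 nM 2.1 kb genotype 1b negative-strand template was measured after 3 h at 30° C using purified His-tagged NS5B truncated at residue 570. Product was spermine-precipitated, filtered and scintillation-counted; nonlinear regression gave IC50.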

[2] = target: T2, HCV NS5B polymerase 1a-H77 (Hepatitis C virus genotype 1a, UniProt P27958); assay: biochemical; design: species or system HCV genotype 1a; settings: enzyme, strain 1a H77; read-out: HCV Polymerase Strain 1a H77 IC50
T2 construct: six-histidine tag; made in house; host or cells: E. coli
Method in brief: as §1

[3] = system: HCV NS5B polymerase 1a-H77-C316Y; assay: biochemical; design: species or system HCV genotype 1a; settings: ratio of enzyme IC50s, 1a H77-C316Y / 1a H77
Method in brief: as §1

[4] = system: HCV 1b-BB7 subgenomic replicon; assay: microbe, parasite or virus in culture; type: cell-based, HCV genotype 1b; settings: Hepatitis C virus, stable replicon
[5] = system: HCV 1b-Con1 subgenomic replicon; assay: Stable replicon cell culture assay (luciferase), 1b-Con1; 5% FBS, optionally 40% human plasma; type: cell-based, HCV genotype 1b; settings: Hepatitis C virus
[6] = strain 1b BB7, 5% FBS + 40% human plasma, read-out: 1b BB7 5% FBS + 40% Human Plasma EC50
[7] = strain 1b BB7, 5% FBS, no human plasma, read-out: 1b BB7 5% FBS EC50
[8] = strain 1b BB7, 5% FBS, read-out: 1b BB7 5% FBS EC50
[9] = strain 1b Con1, 5% FBS + 40% human plasma, read-out: 1b Con1 5% FBS + 40% Human Plasma EC50
[10] = strain 1b Con1, 5% FBS, no human plasma, read-out: 1b Con1 5% FBS EC50
[11] = strain 1b Con1, 5% FBS, read-out: 1b Con1 5% FBS EC50

T1 sequence (P27958 2421-2990 C2736Y): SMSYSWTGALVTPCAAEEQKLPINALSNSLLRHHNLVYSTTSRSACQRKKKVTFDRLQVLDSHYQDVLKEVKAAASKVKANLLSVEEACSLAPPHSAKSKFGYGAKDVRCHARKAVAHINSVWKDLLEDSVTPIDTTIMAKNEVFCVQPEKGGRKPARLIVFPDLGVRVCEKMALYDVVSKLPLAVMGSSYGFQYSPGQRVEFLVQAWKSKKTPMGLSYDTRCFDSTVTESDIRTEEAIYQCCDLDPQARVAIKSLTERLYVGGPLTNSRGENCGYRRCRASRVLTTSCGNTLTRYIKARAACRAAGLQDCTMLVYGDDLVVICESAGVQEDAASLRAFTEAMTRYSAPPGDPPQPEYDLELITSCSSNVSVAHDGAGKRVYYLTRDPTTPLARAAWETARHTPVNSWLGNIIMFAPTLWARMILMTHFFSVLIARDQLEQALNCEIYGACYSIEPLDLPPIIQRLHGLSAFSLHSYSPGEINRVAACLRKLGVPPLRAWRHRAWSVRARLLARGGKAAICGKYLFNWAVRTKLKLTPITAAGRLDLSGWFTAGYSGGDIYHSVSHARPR
T2 sequence (P27958 2421-2990): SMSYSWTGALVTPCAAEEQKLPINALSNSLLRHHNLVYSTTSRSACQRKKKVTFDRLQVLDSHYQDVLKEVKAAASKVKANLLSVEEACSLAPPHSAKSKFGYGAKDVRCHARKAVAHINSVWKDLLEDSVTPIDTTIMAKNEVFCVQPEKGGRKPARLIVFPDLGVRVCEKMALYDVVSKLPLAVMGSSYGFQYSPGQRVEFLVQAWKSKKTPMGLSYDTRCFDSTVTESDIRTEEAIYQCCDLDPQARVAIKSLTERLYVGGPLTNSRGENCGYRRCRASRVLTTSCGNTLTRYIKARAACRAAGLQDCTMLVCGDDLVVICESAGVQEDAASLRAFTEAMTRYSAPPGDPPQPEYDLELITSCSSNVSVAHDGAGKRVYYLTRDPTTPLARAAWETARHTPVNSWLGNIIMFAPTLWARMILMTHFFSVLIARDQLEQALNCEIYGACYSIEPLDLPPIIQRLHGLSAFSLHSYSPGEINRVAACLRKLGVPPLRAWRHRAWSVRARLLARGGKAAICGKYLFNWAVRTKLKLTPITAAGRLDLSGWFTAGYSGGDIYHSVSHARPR

SMILES | IC50 [1] [nM] | IC50 [2] [nM] | C316Y/1a Fold Resistance [3] [fold] | EC50 [4, 6] [nM] | EC50 [4, 7] [nM] | EC50 [4, 8] [nM] | EC50 [5, 9] [nM] | EC50 [5, 10] [nM] | EC50 [5, 11] [nM]
CS(=O)(=O)N(CCO)c1cc2oc(-c3ccc(F)cc3)c(-c3ncc[nH]3)c2cc1C1CC1 [Example 109, N-[5-cyclopropyl-2-(4-fluorophenyl)-3-(1H-imidazol-2-yl)-1-benzofuran-6-yl]-N-(2-hydroxyethyl)methanesulfonamide] | 536 | 5.9 | 90 | 184 | 12.7 | 12.7 |  |  | 
CS(=O)(=O)N(CCO)c1cc2oc(-c3ccc(F)cc3)c(C3=NOCCN3)c2cc1C1CC1 [Example 136, N-[5-cyclopropyl-3-(5,6-dihydro-4H-1,2,4-oxadiazin-3-yl)-2-(4-fluorophenyl)-1-benzofuran-6-yl]-N-(2-hydroxyethyl)methanesulfonamide] | 256 | 6.4 | 40 | 281 | 35 | 35 |  |  | 
CCCC/C=C/c1ccc(-c2oc3cc(N(CCCCS(C)(=O)=O)S(C)(=O)=O)c(C4CC4)cc3c2-c2ncc[nH]2)cc1 [Example 168, N-[5-cyclopropyl-2-{4-[(1E)-hex-1-en-1-yl]phenyl}-3-(1H-imidazol-2-yl)-1-benzofuran-6-yl]-N-[4-(methylsulfonyl)butyl]methanesulfonamide] | 8.5 | 4.9 | 2 |  |  |  | 24.3 | 3.4 | 3.4
CS(=O)(=O)CCCCN(c1cc2oc(-c3ccc(Nc4ccccc4)cc3)c(-c3ncc[nH]3)c2cc1C1CC1)S(C)(=O)=O [Example 169, N-[2-(4-anilinophenyl)-5-cyclopropyl-3-(1H-imidazol-2-yl)-1-benzofuran-6-yl]-N-[4-(methylsulfonyl)butyl]methanesulfonamide] | 19.8 | 6 | 3 |  |  |  | 34.4 | 5 | 4.5
